The supplement of paper PMC13380429

What was measured:
Settings in all cases: 72 h
Caco-2 [1] = assay: cell viability relative to DMSO; higher = less toxic
Calu-3 [2] = assay: as above
HepG2 [3] = assay: as above
U2OS [4] = assay: as above
Vero E6 [5] = assay: as above
Calu-3 [6] = assay: relative viability EC50 (midpoint between 100% and the lowest measured viability); higher = less toxic
HepG2 [7] = assay: as above
U2OS [8] = assay: as above
Vero E6 [9] = assay: as above
Caco-2 [10] = assay: drug sensitivity score (DSS) for viability; higher = more toxic; extreme values may be limits of the assay
Calu-3 [11] = assay: as above
HepG2 [12] = assay: as above
U2OS [13] = assay: as above
Vero E6 [14] = assay: as above
Caco-2 [15] = assay: relative viability EC50 (midpoint between 100% and the lowest measured viability); higher = less toxic

Compound	cell viability (Caco-2 [1]; 1 nM)	cell viability (Caco-2 [1]; 10 nM)	cell viability (Caco-2 [1]; 100 nM)	cell viability (Caco-2 [1]; 1000 nM)	cell viability (Caco-2 [1]; 10000 nM)	cell viability (Calu-3 [2]; 1 nM)	cell viability (Calu-3 [2]; 10 nM)	cell viability (Calu-3 [2]; 100 nM)	cell viability (Calu-3 [2]; 1000 nM)	cell viability (Calu-3 [2]; 10000 nM)	cell viability (HepG2 [3]; 1 nM)	cell viability (HepG2 [3]; 10 nM)	cell viability (HepG2 [3]; 100 nM)	cell viability (HepG2 [3]; 1000 nM)	cell viability (HepG2 [3]; 10000 nM)	cell viability (U2OS [4]; 1 nM)	cell viability (U2OS [4]; 10 nM)	cell viability (U2OS [4]; 100 nM)	cell viability (U2OS [4]; 1000 nM)	cell viability (U2OS [4]; 10000 nM)	cell viability (Vero E6 [5]; 1 nM)	cell viability (Vero E6 [5]; 10 nM)	cell viability (Vero E6 [5]; 100 nM)	cell viability (Vero E6 [5]; 1000 nM)	cell viability (Vero E6 [5]; 10000 nM)	relative viability EC50 (Calu-3 [6])	relative viability EC50 (HepG2 [7])	relative viability EC50 (U2OS [8])	relative viability EC50 (Vero E6 [9])	drug sensitivity score (Caco-2 [10])	drug sensitivity score (Calu-3 [11])	drug sensitivity score (HepG2 [12])	drug sensitivity score (U2OS [13])	drug sensitivity score (Vero E6 [14])	relative viability EC50 (Caco-2 [15])
CCCCCS(=O)(=O)CCCCCCCCCCn1c(-c2ccc(O)cc2)c(C)c2cc(O)ccc21	86.2%	98.7%	97.7%	96.8%	55.5%	101%	98.3%	100%	106%	76.5%	104%	92.3%	98.5%	96.6%	33.8%	99.2%	96.6%	100%	101%	91.5%	95%	99.3%	100%	98.1%	77.6%	> 10 µM	2.77 µM	> 10 µM	> 10 µM	2.8	0.6	4.1	0	1	–
CCN(CC)CCCCNc1ncc2cc(-c3c(Cl)cccc3Cl)c(NC(=O)NC(C)(C)C)nc2n1	98.4%	94.3%	96%	75.2%	69.5%	104%	90%	104%	77.2%	29.8%	98.3%	102%	106%	65.5%	40.3%	100%	101%	95.2%	76.8%	31.9%	102%	102%	104%	104%	25.2%	1.34 µM	0.885 µM	1.38 µM	3.48 µM	4.4	7.2	7.5	6.7	3.8	–
CCOC(=O)c1ncc2[nH]c3cccc(OC(C)C)c3c2c1C	101%	113%	109%	103%	75%	88.7%	112%	99.1%	104%	74.9%	114%	102%	137%	98.8%	109%	–	–	–	–	–	–	–	–	–	–	–	> 10 µM	–	–	0.8	0.8	0	–	–	> 10 µM
COc1ccc(CNC(=O)Nc2ncc([N+](=O)[O-])s2)cc1	105%	103%	95.5%	103%	73.7%	104%	107%	94.9%	107%	96.5%	113%	107%	102%	99.8%	30.3%	96.1%	104%	96.5%	102%	90.8%	106%	104%	101%	102%	97.2%	> 10 µM	3.15 µM	> 10 µM	> 10 µM	0.9	0	3.9	0	0	–
C[C@H](NC(=O)[C@@H](O)c1cc(F)cc(F)c1)C(=O)N[C@@H]1C(=O)N(C)c2ccccc2-c2ccccc21	101%	89.2%	101%	86%	91.3%	98%	87.7%	97.9%	101%	100%	97.1%	95.6%	102%	101%	88.2%	96%	93.9%	94%	93%	94.7%	–	–	–	–	–	> 10 µM	> 10 µM	> 10 µM	–	0	0	0	0	–	> 10 µM
Cc1ccc(/C=C2\CNC/C(=C\c3ccc(C)cc3)C2=O)cc1	103%	98.6%	94%	94.1%	38.8%	92.7%	112%	105%	104%	79%	119%	99.2%	110%	101%	12.4%	105%	106%	101%	98%	13.4%	101%	97.9%	104%	103%	50.2%	> 10 µM	3.24 µM	3 µM	–	4.3	0.5	4.8	5.1	2.4	2.36 µM
Cc1n[nH]c(C)c1Cc1sc2c(c1C(=O)N1C[C@H](O)CO1)c(=O)n(C)c(=O)n2CC(C)C	91.3%	79.3%	77.2%	67.4%	69%	102%	86.3%	99.4%	93.3%	99.8%	97%	108%	95%	98.8%	109%	97.8%	92.6%	89.4%	86.7%	89.7%	89.7%	98.7%	92.9%	95.7%	101%	> 10 µM	> 10 µM	> 10 µM	> 10 µM	10.2	0	0	1.2	0	–
COc1ccc2c(Oc3ccc(NC(=O)c4c(C)n(CC(C)(C)O)n(-c5ccccc5)c4=O)nc3)ccnc2c1 [AMG458]	99.6%	106%	90.8%	95.9%	72%	99.1%	106%	100%	92.7%	86.6%	99.3%	92.2%	98.2%	88.3%	65.8%	102%	116%	99.3%	103%	93.3%	104%	103%	104%	98.6%	102%	> 10 µM	–	> 10 µM	> 10 µM	1.8	0.5	3	0	0	–
CO[C@H]1CC[C@H](N2C(=O)CNc3ncc(-c4ccc(C(C)(C)O)nc4)nc32)CC1 [CC-223]	102%	104%	99.4%	81.9%	42.7%	94.6%	87.1%	106%	74.4%	41.6%	103%	95.6%	98.9%	94.6%	42.9%	99.1%	95.6%	102%	97.7%	56%	110%	104%	99.8%	92.5%	52.7%	1.11 µM	2.39 µM	–	–	5.8	6.6	4	2.6	3.7	1.36 µM
c1ccc(-c2cnn3cc(-c4ccc(OCCN5CCOCC5)cc4)cnc23)cc1 [DMH4]	105%	97.9%	93.6%	96.1%	74.3%	101%	107%	89.6%	114%	85.9%	96.4%	95.1%	98.2%	91.5%	50.7%	102%	101%	99.6%	98.6%	80.8%	97.1%	101%	101%	91.4%	104%	> 10 µM	–	> 10 µM	> 10 µM	1.6	0	4	0.7	0	–
O=C1c2ccccc2C(Cc2ccnc(F)c2)(Cc2ccnc(F)c2)c2ccccc21 [DMP-543]	97.2%	100%	92.5%	81.2%	72.9%	103%	92.1%	85.9%	92%	81.3%	90.1%	100%	94.4%	95.4%	89.4%	99.8%	105%	96%	96.6%	95.1%	101%	101%	100%	97.7%	94.8%	> 10 µM	> 10 µM	> 10 µM	> 10 µM	3.3	1.7	0	0	0	–
O=C(/C=C\n1cnc(-c2cc(C(F)(F)F)cc(C(F)(F)F)c2)n1)N1CC(F)(F)C1 [KPT-276]	104%	91.2%	88.8%	73.9%	66.2%	97.3%	102%	97.2%	64.1%	68.3%	100%	85.5%	80%	44.4%	32.8%	106%	96%	91.4%	68%	17.3%	93.5%	96.1%	82.3%	69.8%	36.9%	–	0.19 µM	1.3 µM	0.611 µM	5.4	6.7	12.8	8.2	8.1	–
Cc1cc(C)c2nc(-c3ccccn3)cc(C(=O)Nc3ccc(S(=O)(=O)Nc4onc(C)c4C)cc3)c2c1 [ML193]	95.2%	90.1%	101%	83.7%	114%	97%	93.5%	96%	86.3%	94.9%	89.7%	108%	100%	97.2%	104%	100%	98.7%	103%	98%	98.4%	–	–	–	–	–	> 10 µM	> 10 µM	> 10 µM	–	0	0	0	0	–	> 10 µM
C[C@@H]1O[C@@H](O[C@H]2[C@H](Oc3cc(O)c4c(c3)O[C@H](c3ccc(O)cc3)CC4=O)O[C@H](CO)[C@@H](O)[C@@H]2O)[C@H](O)[C@H](O)[C@H]1O [Naringin (Naringoside)]	92.3%	95.9%	97.9%	96.3%	102%	110%	96.9%	98.8%	103%	98.8%	104%	112%	90%	97.7%	98.9%	99.6%	94.7%	101%	98.2%	108%	–	–	–	–	–	> 10 µM	> 10 µM	> 10 µM	–	0	0	0	0	–	> 10 µM
O=C(O)C1CN(Cc2ccc(-c3nc4cc(Cc5ccccc5F)ccc4s3)c(F)c2)C1 [TC-SP-14]	97%	81.7%	84.2%	99.1%	81.8%	91.2%	90.5%	102%	95.1%	107%	109%	121%	90.3%	119%	90%	99.4%	97.9%	98.8%	102%	101%	–	–	–	–	–	> 10 µM	> 10 µM	> 10 µM	–	0	0	0	0	–	> 10 µM
